“Also recorded” adds a separate entry of the source.
How the values were obtained:
[1] = test system: PASMCs; assay: Hypoxia-induced increase in [Ca2+]i in PASMCs (4% O2); format: cell-based, rat; conditions: 10-100 μM
Description: Intrapulmonary arteries (200-600 μm o.d.) were isolated from male Wistar rats (250-350 g) and cleaned of connective tissue. After the lumen was gently rubbed with a cotton swab to remove the endothelial cells, the arteries were allowed to recover for 30 minutes in cold (4° C.) HBSS containing (in mM): 130 NaCl, 5 KCl, 1.2 MgCl2, 1.5 CaCl2, 10 N-[2-hydroxyethyl]piperazine-N′-[2-ethanesulfonic acid] (HEPES) and 10 glucose, with pH adjusted to 7.2 with 5 M NaOH, followed by 20 minutes in reduced-Ca^2+ (20 μM CaCl2) HBSS at room temperature. […] Following digestion, single smooth muscle cells were dispersed by gentle trituration with a wide-bore transfer pipette in Ca^2+-free HBSS and the cell suspension was placed on 25 mm glass cover slips. PASMCs were transiently cultured in Ham's-F-12 media supplemented with 0.5% fetal bovine serum and 1% penicillin/streptomycin for 24-48 hrs. before study.
Acute hypoxia increases intracellular [Ca^2+] in pulmonary arterial smooth muscle by enhancing capacitative Ca^2+ entry. […] Ratiometric measurement of fluorescence from the dye was performed on a workstation (Intracellular Imaging Inc, Cincinnati, Ohio) consisting of a Nikon TSE 100 Ellipse inverted microscope with epi-fluorescence attachments. The light beam from a xenon arc lamp was filtered at 340 and 380 nm, and focused onto the PASMCS under examination via a 20× fluorescence objective (Super Fluor 20, Nikon). Light emitted from the cell at 510 nm was returned through the objective and detected by a cooled CCD imaging camera. An electronic shutter (Sutter Instruments) was used to minimize photobleaching of dye. Protocols were executed and data collected on-line with InCyte software (Intracellular Imaging Inc). [Ca^2+]i was estimated from in vitro calibration solutions.

[2] = test system: Beagle dogs; conditions: iv 10 mg·kg^−1·h^−1; Höhne 2004; cited from earlier work

Row | SMILES | effect on hypoxia-induced increase in [Ca^2+]i [1] | effect on hypoxia-induced increase in [Ca^2+]i ([1]; listed as EF) | effect on HPV in conscious dogs [2]
1 | CCOc1ccc2nc(S(N)(=O)=O)sc2c1 [EZ, ethoxzolamide] | no effect | neither EF (FIG. 5) nor BZ (FIG. 6) had a significant effect | 
2 | CC(=O)Nc1nnc(S(N)(=O)=O)s1 [AZ, acetazolamide] | almost complete blockade; also recorded: significant reduction |  | totally abolished
3 | NS(=O)(=O)c1nnc(NS(=O)(=O)c2ccccc2)s1 [BZ, benzolamide] | no effect; also recorded: neither EF (FIG. 5) nor BZ (FIG. 6) had a significant effect |  | 

— patent US8614236B2 (University of Washington, priority 2006, dated 2013)
